One compound from publication PMC10035904, “Synthesis of novel sulphamethoxazole derivatives and exploration of their anticancer and antimicrobial properties” (PLOS ONE, 2023) can be followed below.

Assay [1] relates to Staphylococcus aureus ATCC 25923. Nature of the assay: Serial dilution on solid agar, S. aureus. The format is cell-based. Conditions: ATCC25923, solid Mueller-Hinton agar, 24 hours. The method, then: Antimicrobial activity of compound 16b on solid agar was tested using the same microbial cultures, and the same suspension preparation procedure, as described in above section. All procedures were done in aseptic conditions.
Mueller-Hinton agar was boiled and kept at to 37 °C during the whole procedure. Compound 16b solution was prepared in DMSO right before experiment. The Agar was mixed with compound solution at different ratios to make the final compound concentrations of 1 mM, 400 μM, 200 μM and 100 μM. Then 10 ml of prepared solution was poured into sterile Petri dishes (85 mm in diameter) and kept in aseptic conditions while the agar solidified. The agar with 0.5% of DMSO served as a negative control. With the help of loop standard microbial cultures by 0.1 ml were poured on the surface of prepared agar with investigative compound. Then Petri dishes were kept for 24 hours in thermostatic conditions.
The minimal dilution, i.e. the lowest concentration in μg/mL of the investigative and comparison compounds that inhibited visible growth of microorganisms was the minimal inhibitory concentration (MIC).

Assay [2] shares this test system. Nature of the assay: Serial broth dilution in liquid medium, S. aureus. The format is cell-based. The conditions noted are these: Mueller-Hinton broth, 24 hours; result in words. The protocol: (§1) Antibacterial and antifungal susceptibility to the compound 16b was tested using a serial broth dilution technique in Mueller-Hinton broth II (BBL, Cockeysville, USA), as described elsewhere. All procedures were done in aseptic conditions. Standard bacterial and fungal cultures were used: Staphylococcus aureus ATCC 25923, Staphylococcus epidermidis ATCC 12228, Escherichia coli ATCC 25922, Enterococcus faecalis ATCC 29212, Klebsiella pneumoniae ATCC 33499, Pseudomonas aeruginosa ATCC 27853, Proteus mirabilis ATCC 12459, Bacillus cereus ATCC 8035, and Candida albicans ATCC 60193. Standard cultures of nonsporic bacteria S. aureus, S. epidermidis, E. coli, E. faecalis, K. pneumoniae, P. aeruginosa and P. mirabilis were cultivated for 20–24 hours at 37°C in Mueller-Hinton Agar (BBL, Cockeysville, USA). A bacterial suspension was prepared from cultivated bacterial cultures in physiological solution according to turbidity standard 0.5 McFarland. Standard culture of sporic bacteria B. cereus was cultivated for 7 days at 37°C in Mueller-Hinton II Agar. […] Then the absorbance was measured at 600 nm using a multi-detection microplate reader. […]

Assay [3] deals with Klebsiella pneumoniae ATCC 33499. Nature of the assay: Serial broth dilution in liquid medium, K. pneumoniae. The format is cell-based. The conditions noted are these: ATCC33499, Mueller-Hinton broth, 24 hours, n = 3. The protocol:
as §1

Assay [4] has as its system HF, PPC-1, and CaKi-1 cells. Nature of the assay: MTT cell viability screen at 100 μM (cell line not given). The format is cell-based, human. The conditions noted are these: 72 h, cell line not stated. The method, then: The effect of synthesized compounds on cell viability was studied using 3-(4,5-dimethylthiazol-2-yl)-2,5-diphenyltetrazolium bromide (MTT; Sigma-Aldrich Co., St Louis, MO, USA) assay, as described elsewhere. Briefly, HF, PPC-1, and CaKi-1 cells were seeded in 96-well plates (Corning) in triplicates at a volume of 100 μL at a concentration of 4 × 10^3 cells/well. After 24 h of incubation, the cells were treated with 100 μM of tested compounds. After 72 h, the MTT reagent (at 0.5 mg/mL concentration) has been added to the wells, and cells were incubated for 4 h. Then the medium was aspirated, and the formed purple crystals were dissolved in 100 μL DMSO (Sigma-Aldrich Co.). The absorbance was measured at 570 and 630 nm using a multi-detection microplate reader. The compound effect on cell viability was calculated using a formula (1): Relativecellviability%=A−A0/ANC−A0 (1) Where: […]

Assay [5] has as its system human prostate carcinoma cell line PPC-1. Nature of the assay: MTT cell viability assay, PPC-1. The format is cell-based. The conditions noted are these: 72 hours of incubation, n = 3, read-out: EC50 against PPC-1. The protocol: The human clear cell renal cell carcinoma line (CaKi-1) was obtained from American Type Culture Collection (ATCC, Manassas, VA). The human prostate carcinoma cell line PPC-1 was originally obtained from ATCC and kindly provided by Prof. Tambet Teesalu (University of Tartu, Estonia). Human foreskin fibroblasts (HF) CRL-4001 were originally obtained from ATCC and kindly provided by Prof. Helder Santos (University of Helsinki, Finland). Cells were cultured in Dulbecco’s Modified Eagle’s GlutaMAX medium (Gibco (Carlsbad, CA, USA) supplemented with 10,000 U/mL penicillin, 10 mg/mL streptomycin (Gibco), and 10% fetal bovine serum (Gibco). During cell passaging, Tryple Express reagent (Gibco) was used for cell detachment. Cell cultures were grown at 37°C in a humidified atmosphere containing 5% CO2. They were used until the passage of 20.
The effect of synthesized compounds on cell viability was studied using 3-(4,5-dimethylthiazol-2-yl)-2,5-diphenyltetrazolium bromide (MTT; Sigma-Aldrich Co., St Louis, MO, USA) assay, as described elsewhere. […] The absorbance was measured at 570 and 630 nm using a multi-detection microplate reader. The compound effect on cell viability was calculated using a formula (1): Relativecellviability%=A−A0/ANC−A0 (1) Where: […]

The structures appear in SMILES notation. In brackets after ≈: the same amount, converted by molar mass. Some results are limits rather than exact numbers.

In assay [1], `Cc1cc(NS(=O)(=O)c2ccc(NCCC(=O)NN=Cc3ccc([N+](=O)[O-])o3)cc2)no1` [Compound 16b, N-(5-methylisoxazol-3-yl)-4-((3-(2-((5-nitrofuran-2-yl)methylene)hydrazineyl)-3-oxopropyl)amino)-benzenesulfonamide] yielded an MIC of 100 µM (≈ 46.2 µg/mL). Also, the “sensitivity of S. aureus in liquid medium” value in assay [2] is given as “most sensitive”. The EC50 is greater than 100 µM in assay [3] and 10.4 ± 3 µM in assay [5]. In addition, the “reduced cell viability up to about” value in assay [4] is on record as “about 40%”.
